Tests used:
CYP2C9 = molecular target: T1, CYP2C9 (Homo sapiens, UniProt P11712); assay: Human Cytochrome P450 Inhibition Assay (Bactosomes), CYP2C9; type: in vitro ADME; conditions: recombinant Bactosomes, probe substrate, 10 minutes at 37° C.
T1 construct: purchased Cypex Ltd, Dundee, Scotland UK
Method: The ability of test compounds to inhibit five of the most relevant cytochrome P450 enzymes was measured by determination of the activity of cytochrome P450 enzymes in recombinant cytochrome preparations, called Bactosomes (Cypex Ltd, Dundee, Scotland UK DD2 1NH), in the presence of a specific probe substrate. Bactosomes are a highly efficient and cost-effective source of recombinant CYP450s which have a higher specific activity of enzyme compared to other sources, such as liver microsomes. […] The following CYP450 isoforms were assayed: CYP1A2, CYP2C9, CYP2C19, CYP2D6 and CYP3A4. The study of CYP450 inhibition potential in Bactosomes is accepted as a valuable model permitting rapid prediction of potential drug-drug interactions in vivo (see, e.g., Weaver et al., 2003).
Bactosomes were obtained from a commercial source (Cypex, Scotland, UK). Test compounds were incubated with Bactosomes at 6 concentrations. Samples were incubated for 10 minutes, after which the reaction was stopped and the samples analysed by LC-MS/MS Multiple Reaction Monitoring (MRM) for the presence/amount of substrate probe.
CYP450 enzymes (final protein 75 pmol/mL for CYP1A2; 12.5 pmol/mL for CYP2C19; and 25 pmol/mL for CYP2C9, 2D6 and 3A4), 0.1 M phosphate buffer pH 7.4, probe and test compound (final concentration 50, 15.8, 5, 1.58, 0.5 and 0.158 μM; diluted from 10 mM stock solution to give a final DMSO concentration of 1%) were pre-incubated at 37° C. for 5 minutes. The reaction was initiated by the addition of 20 μL of 10 mM NADPH in phosphate buffer. The final incubation volume was 200 μL. The following control inhibitors were used for each CYP450 inhibition assay: CYP1A2: α-naphthoflavone; CYP2C9: sulfaphenazole; CYP2C19: tranylcypromine; CYP2D6: quinidine; CYP3A4: ketoconazole.
Each compound was incubated for 10 minutes at 37° C. The reactions were stopped by the addition of methanol (final composition 1:1, aqueous: methanol). The incubation plates were shaken, chilled at […] for 2 hours, and centrifuged at 3500 rpm for 15 minutes at 4° C. to precipitate the protein.
IC50 values were determined by linear transformation within Microsoft Excel.

J774 macrophages = assay: Resazurin Macrophage J774 Viability Assay; type: cell-based; conditions: Mus musculus
Method: Potency was assessed using a viability assay based on the survival of the J774 macrophage cell line. Macrophages are closely related to osteoclasts and have been used previously as a model system for osteoclast survival (see, e.g., Luckman et al., 1998, “Heterocycle-containing bisphosphonates cause apoptosis and inhibit bone resorption by preventing protein prenylation: evidence from structure-activity relationships in J774 macrophages,” J. Bone Miner. Res., Vol. 13, pp. 1668-1678). The model is indicative both of effects on bone protection in diseases such as osteoporosis, osteoarthritis and rheumatoid arthritis, and of effects on inflammation since, like osteoclasts, J774 macrophages are dependent for survival on continued NFκB activation.
In vitro potency of test compounds was determined by incubation with J774 macrophages and subsequent determination of cell viability using resazurin.
Resazurin is a redox dye commonly used as an indicator of viability in cultured cells (see, e.g., Anoopkumar-Dukie, 2005, “Resazurin assay of radiation response in cultured cells”, British Journal of Radiology, Vol. 78, pp. 945-947). It is non-toxic to cells and stable in culture medium, allowing continuous measurement of cell proliferation in vitro as either a kinetic or endpoint assay. The assay is based on the ability of viable, metabolically-active cells to reduce resazurin (which is blue and non-fluorescent) to resorufin and dihydroresorufin (which are red and fluorescent) using electrons from reducing species, such as nicotinamide […] and flavin adenine dinucleotide (FADH). This transformation, from oxidised form to reduced form, can be measured either colorimetrically or fluorometrically. Insults that impair cell viability and proliferation also affects the capacity of cells to reduce resazurin, and the rate of dye reduction is directly proportional to the number of viable cells present.
For fluorescence measurements, 530-560 nm excitation and 590 nm emission wavelengths are typically used. For colorimetric measurements, absorbance at 570 nm (reduced form) and 600 nm (oxidised form) is typically measured. A simple calculation is performed to determine the relative quantities of the two species: a high ratio of resorufin (the reduced form) to resazurin (the oxidised form) is an indicator that cells are proliferating and viable. A low ratio indicates cells that are quiescent or non-viable.
J774 cells were plated at 10^4 cells per well in 100 μL αMEM (α Modified Eagle Medium) in 96-well plates and allowed to adhere overnight. The following day, test compounds were prepared as 100 mM solutions in DMSO. These stock solutions were diluted in DMSO and then diluted 1000× in culture medium (αMEM) before being added directly to the wells so as to give the desired final compound concentration. After a 72 hour incubation at 37° C./5% CO2, resazurin (Alamar Blue, Biosource International) was added to each well (1:10 v/v, 10 μL). The plate was then incubated at 37° C. for 3 hours and fluorescence was measured at 590 nm, with a 25 nm bandwidth.
The average results for each test compound were expressed as a percent (%) of the average control value reflecting cell viability. The average values across the concentrations tested were then plotted and an IC50 was calculated by fitting the data to a 4-parameter IC50 equation using either Graph Pad Prism software for Windows (Graph Pad Software, San Diego Calif. USA) or Grafit version 5 (Erithacus Software). Each experiment was repeated twice and the data are presented as the mean IC50 from both experiments.

[1] = J774, 72 h, footnote (1): 10 point range 30 μM to 1.5 nM, n = 3 per concentration, Grafit, 72 hour incubation
[2] = J774, footnote (2): 12 point range 10 μM to 0.5 nM, n = 4 per concentration, GraphPad Prism, average of original and new experiments where replicates increased

T1 sequence (P11712 whole entry): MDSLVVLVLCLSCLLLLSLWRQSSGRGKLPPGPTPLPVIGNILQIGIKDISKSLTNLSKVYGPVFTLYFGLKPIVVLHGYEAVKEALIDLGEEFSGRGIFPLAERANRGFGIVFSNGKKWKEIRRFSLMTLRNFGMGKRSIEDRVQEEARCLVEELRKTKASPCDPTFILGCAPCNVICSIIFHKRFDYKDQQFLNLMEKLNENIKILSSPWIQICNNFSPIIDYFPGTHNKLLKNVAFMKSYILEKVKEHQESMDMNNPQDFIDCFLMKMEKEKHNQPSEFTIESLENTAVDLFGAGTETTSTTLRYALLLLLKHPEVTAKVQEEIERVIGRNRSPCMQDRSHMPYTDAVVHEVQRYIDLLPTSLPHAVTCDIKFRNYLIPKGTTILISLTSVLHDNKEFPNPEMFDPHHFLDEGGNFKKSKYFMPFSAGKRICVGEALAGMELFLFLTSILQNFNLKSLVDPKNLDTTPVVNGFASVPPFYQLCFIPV

| IC50 (CYP2C9) [µM] | Compound | IC50 (J774 macrophages; [1]) [nM] | IC50 (J774 macrophages; [2]) [nM] | IC50 (J774 macrophages; J774, first column (original replicates, n = 2), footnote (2): 12 point range 10 μM to 0.5 nM, GraphPad Prism) [nM] |
| --- | --- | --- | --- | --- |
| 9.5 | O=S(=O)(N[C@H]1CC[C@H](O)CC1)c1ccc(-c2ccc(F)cc2F)cc1 [ABD599, reference compound] | 410 | – | – |
| – | C[C@]1(O)CC[C@H](NS(=O)(=O)c2ccc(-c3ccc(F)cc3F)cc2)CC1 [ABD900] | 3640 | 2910 | – |
| > 50 | C[C@]1(O)CC[C@H](NS(=O)(=O)c2ccc(-c3ccc(C#N)cc3)c(F)c2)CC1 [HMC-C-07-A, 4′-Cyano-2-fluoro-N-((1r,4r)-4-hydroxy-4-methylcyclohexyl)-[1,1′-biphenyl]-4-sulfonamide] | – | 1660 | – |
| 6.7 | C[C@]1(O)CC[C@H](NS(=O)(=O)c2ccc(-c3ccc(Cl)cc3C#N)c(F)c2)CC1 [HMC-C-08-A, 4′-Chloro-2′-cyano-2-fluoro-N-((1r,4r)-4-hydroxy-4-methylcyclohexyl)-[1,1′-biphenyl]-4-sulfonamide] | – | 1250 | – |
| 34 | C[C@]1(O)CC[C@H](NS(=O)(=O)c2ccc(-c3ccc(C#N)cc3Cl)cc2)CC1 [HMC-C-09-A, 2′-Chloro-4′-cyano-N-((1r,4r)-4-hydroxy-4-methylcyclohexyl)-[1,1′-biphenyl]-4-sulfonamide] | – | 690 | – |
| 2.4 | C[C@]1(O)CC[C@@H](NS(=O)(=O)c2ccc(-c3cc(F)c(F)cc3F)cc2)CC1 [HMC-C-10-B, 2′,4′,5′-Trifluoro-N-((1s,4s)-4-hydroxy-4-methylcyclohexyl)-[1,1′-biphenyl]-4-sulfonamide] | – | 540 | – |
| 2.7 | C[C@]1(O)CC[C@H](NS(=O)(=O)c2ccc(-c3ccc(Cl)cc3C#N)c(Cl)c2)CC1 [HMC-C-11-A, 2,4′-Dichloro-2′-cyano-N-((1r,4r)-4-hydroxy-4-methylcyclohexyl)-[1,1′-biphenyl]-4-sulfonamide] | – | 1460 | – |
| 27 | C[C@]1(O)CC[C@H](NS(=O)(=O)c2ccc(-c3ncc(Cl)cc3C#N)cc2)CC1 [HMC-N-05-A, 4-(5-Chloro-3-cyanopyridin-2-yl)-N-((1r,4r)-4-hydroxy-4-methylcyclohexyl)benzenesulfonamide] | – | 1820 | – |

| Compound | IC50 (CYP2C9) [µM] | IC50 (J774 macrophages; [1]) [nM] | IC50 (J774 macrophages; [2]) [nM] | IC50 (J774 macrophages; J774, first column (original replicates, n = 2), footnote (2): 12 point range 10 μM to 0.5 nM, GraphPad Prism) [nM] |
| --- | --- | --- | --- | --- |
| Cc1cc(S(=O)(=O)N[C@H]2CC[C@H](O)CC2)ccc1-c1ccc(F)cc1F [ABD735, reference compound] | 25 | 70 | 110 | – |
| C[C@]1(O)CC[C@@H](NS(=O)(=O)c2ccc(-c3ccc(F)cc3F)cc2)CC1 [ABD899, reference compound] | 3.9 | 270 | 210 | – |
| C[C@]1(O)CC[C@@H](NS(=O)(=O)c2ccc(-c3ccc(C#N)cc3)c(F)c2)CC1 [HMC-C-07-B, 4′-Cyano-2-fluoro-N-((1s,4s)-4-hydroxy-4-methylcyclohexyl)-[1,1′-biphenyl]-4-sulfonamide] | > 50 | – | 96 | 90 |

Reference: US10005733B2, “N-(4-hydroxy-4-methyl-cyclohexyl)-4-phenyl-benzenesulfonamide and N-(4-hydroxy-4-methyl-cyclohexyl)-4-(2-pyridyl)-benzenesulfonamide compounds and their therapeutic use” (PIMCO 2664 LIMITED, priority 2014, dated 2018)
